This data set in a line: Human HepG2 cell viability assay in 384 well format. Format: toxicity, cell-based. Also noted: dose 125 nL, time 70.5 hour; cytotoxicity at 70.5 h: concentration not given beside the values. Particulars: HepG2 cells, read-out: Inhibition.

As to `CCNS(=O)(=O)c1ccc2c(c1)c(=O)n(CC)c(=O)n2CC`, the cytotoxicity at 70.5 h was found to be 2%.
For `Cc1cc2c(cc1NC(N)=O)OCO2`, the cytotoxicity at 70.5 h is -4.79%.
In the case of `Cc1c(S(=O)(=O)N2CCOCC2)cc2c(C)cc(=O)n3c2c1CCC3`, the cytotoxicity at 70.5 h stood at 0.511%.
The figure for `CN(C)S(=O)(=O)Nc1ccc(Oc2ccc3c(c2)OCO3)cc1` is -5.35%; for `COc1ccc(C2=Nn3c(CN)nnc3-c3ccccc3C2)cc1` it is -18.7%; for `O=C(NCc1cccs1)c1[nH]nc2c1CS(=O)(=O)CC2` it is -0.606%.
The figure for `CCn1nccc1CNc1[nH]cnc2nncc1-2` is -20.2%; for `CCn1nccc1CN(C)c1[nH]cnc2nc(C)nc1-2` it is -5.53%.
The value for `CCn1ncc(Nc2[nH]cnc3nc(C)nc2-3)c1C` was -6.65%; that for `O=C1CNc2ncnc(N3CCN(Cc4cccc(F)c4)CC3)c2N1` was 17.9%.
On to `O=C1CNc2ncnc(Nc3cnn(Cc4cccc(F)c4)c3)c2N1`, for which the cytotoxicity at 70.5 h is -16.6%.
The figure for `O=C1CNc2ncnc(N3CCN(c4ccccc4F)CC3)c2N1` is 16.1%; for `CCCc1noc(C2CCN(C(=O)C3CCCO3)CC2)n1` (configuration not stated) it is -13.7%; for `CC(C)c1noc(C2CCN(S(=O)(=O)c3cccs3)CC2)n1` it is -0.463%.
The value for `CCc1noc(C2CCCCN2C(=O)c2cccs2)n1` (configuration not stated) was -4.33%.
The figure for `CCc1noc(C2CCCCN2C(=O)c2ccc3c(c2)OCO3)n1` (configuration not stated) is -4.04%.
`CCS(=O)(=O)N1CCCCC1c1nc(C(C)C)no1` (configuration not stated): the cytotoxicity at 70.5 h was found to be 7.03%.
As for `Cc1nn(C)c2cnn(CC(=O)NCc3ccc(F)cc3)c12`, the cytotoxicity at 70.5 h came out at 12.4%.
The figure for `CC(c1ccncc1)N1Cc2nc(N(C)C)ncc2C1=O` (configuration not stated) is -2.18%; for `CC(C)Cc1noc(C2CCN(C(=O)c3cccs3)CC2)n1` it is -0.0683%; for `Cc1nn(C)c2cnn(CC(=O)NCc3ccc4c(c3)OCO4)c12` it is -3.63%.
The value for `Cc1nn(C)c(C)c1CN1CCN(CC2(O)CCCN(C)C2)CC1` (configuration not stated) was -10.5%; that for `Cc1nn(C)c2cnn(Cc3ccc(C(=O)NC4CC4)cc3)c12` was -5.97%.
The value for `Cc1nn(C)c2cnn(CC(=O)NCc3ccccc3F)c12` was -8.04%; that for `Cc1nn(C)c2cnn(CC(=O)NCc3cccs3)c12` was -8.64%.
As for `CCN1CCCC(O)(CN(C)Cc2ccccc2F)C1` (configuration not stated), the cytotoxicity at 70.5 h was -9.61%.
The value for `Cc1cc(C)n(CCC(=O)N2CCC(c3nc(C)no3)CC2)n1` was -12.5%; that for `Cc1noc(C2CCCN(C(=O)c3cc(-c4ccccc4)on3)C2)n1` (configuration not stated) was -20.7%; that for `Cc1nn(C)c2cn(C(C)C(=O)NCc3cccc(F)c3)nc12` (configuration not stated) was -3%.
Regarding `Cc1cccc2c1ccn2CC(=O)O`, the cytotoxicity at 70.5 h is 6.19%.
The figure for `CC(O)c1cccc(Nc2nc(NCCO)c3ccccc3n2)c1` (configuration not stated) is -5.65%; for `Cc1cc2[nH]c(O)nc2cc1NCc1ccc(F)cc1` it is -10.2%.
As to `O=c1c2cnc(N3CCCCC3)nc2ccn1Cc1ccco1`, the cytotoxicity at 70.5 h was -7.45%.
The figure for `Cc1nc(N2CCCC2)ncc1-c1cc(O)nc(NCC2CCCO2)n1` (configuration not stated) is -5.1%; for `Cc1nn(C)c2cn(CC(=O)N3CCN(c4ccccc4)CC3)nc12` it is 7.34%.
On to `CCn1nccc1CNC(=O)Cn1cc2c(n1)c(C)nn2C(C)C`, for which the cytotoxicity at 70.5 h was -9.07%.
Consider `CCN1CCCC(O)(CNCc2ccccc2F)C1` (configuration not stated), for which the cytotoxicity at 70.5 h turned out to be 12.4%.
The value for `CC(c1ccccc1)N1Cc2nc(N(C)C)ncc2C1=O` (configuration not stated) was 49%.
The value for `CN1CCC(N2Cc3nc(N)ncc3C2=O)CC1` was -11.6%; that for `CN1CCN(c2nsc(-c3ccccc3)c2C#N)CC1` was -2.35%.
The value for `CCn1nc(C)c(CNC(=O)c2nnc3ccccc3n2)c1C` was 0.73%; that for `O=C(NCCn1cccn1)c1nnc2ccccc2n1` was 19.4%.
`N#Cc1c(N2CCCCC2)nsc1-c1cccnc1`: the cytotoxicity at 70.5 h came out at 25%.
Turning to `CN1CCN(C(=O)c2nnc3ccc(Cl)cc3n2)CC1`, the cytotoxicity at 70.5 h is -10.9%.
The figure for `Cc1ccc2nnc(C(=O)NCC3CCCC3)nc2c1` is -0.847%; for `CC(C)CN1Cc2nc(N3CCCC(C)C3)ncc2C1=O` (configuration not stated) it is -9.32%; for `CNc1ncc2c(n1)CN(CCc1ccc(Cl)cc1)C2=O` it is -5.88%.
As for `CCN1CCN(c2ncc3c(n2)CN(c2cnn(CC)c2)C3=O)CC1`, the cytotoxicity at 70.5 h is -6.35%.
Consider `CCCN1Cc2nc(N3CCCC3)ncc2C1=O`, for which the cytotoxicity at 70.5 h is -5.27%.
The value for `COC(=O)C1CCN(C(=O)c2nnc3ccc(C)cc3n2)CC1` was -6.57%.
The value for `Cc1ccc2nnc(C(=O)NCCCn3cccn3)nc2c1` was 6.08%; that for `Cc1nn(C)c(C)c1CN(C)C(=O)c1cc(NC(=O)C2CC2)n(C)n1` was -8.63%; that for `Cn1nc(C(=O)NC2CC(C)(C)NC(C)(C)C2)cc1NC(=O)C1CC1` was -8.61%.
On to `Cc1nc2c(N3CCN(CCO)CC3)nc(N)nc2n1C`, for which the cytotoxicity at 70.5 h is 0.799%.
As for `Cc1nc2c(N(C)Cc3ccnn3C)nc(N)nc2n1C`, the cytotoxicity at 70.5 h stood at 0.962%.
The figure for `CCn1nc(C)c(NC(=O)CCn2ncc3cc(C)ccc32)c1C` is 13.9%.
For `CN(C)CCNC(=O)CCn1ncc2c(Cl)cccc21`, the cytotoxicity at 70.5 h was -4.46%.
`CCn1cc(CNC(=O)CCn2ncc3c(Cl)cccc32)cn1`: the cytotoxicity at 70.5 h stood at 17.5%.
In the case of `Cc1cc(O)nc(C2CN(CC3(O)CCOCC3)CCO2)n1` (configuration not stated), the cytotoxicity at 70.5 h amounted to 8.89%.
`CC(=O)N[C@@H]1CN(C(=O)c2cnc3ccccc3c2)C[C@H]1O`: the cytotoxicity at 70.5 h worked out at 10.7%.
The value for `O=C1CO[C@H]2CN(Cc3cccc(F)c3F)C[C@@H]2N1C1CCOCC1` was 41.9%; that for `NC(=O)CN1CCC2(CC1)C[C@@H](O)[C@H](c1ccccc1)NC2=O` was -0.832%; that for `O=C(O)C1CN(c2cccc(Cl)c2)CCO1` (configuration not stated) was -4.2%.
For `Cc1cn[nH]c1C1COCCN1S(=O)(=O)c1cn[nH]c1` (configuration not stated), the cytotoxicity at 70.5 h was -0.517%.
The value for `COc1cccc(CN2CCOC(c3cnccn3)C2)c1F` (configuration not stated) was -8.48%.
The value for `Cc1noc(C)c1C(=O)N1CCCCC1c1cc(C)n2ccnc2n1` (configuration not stated) was -10.1%; that for `CCCn1nccc1-c1cc(C2CCN(S(C)(=O)=O)CC2)nc(C)n1` was -6.18%; that for `Cc1cc(C2CCCN(S(=O)(=O)c3cn[nH]c3)C2)ccn1` (configuration not stated) was -7.27%.
The figure for `COCC(=O)N1CCCC1c1cccc(Nc2ncc(C)s2)n1` (configuration not stated) is 0.0728%; for `CN1CCOC(C)(C(=O)N2CCSCC2)C1` (configuration not stated) it is -4.76%.
As to `CNC(=O)C1CN(C)CCN(CCCOc2ccccc2F)C1` (configuration not stated), the cytotoxicity at 70.5 h was -3.84%.
On to `O=C(CCN1CCc2ccccc21)N1C[C@@H](O)[C@H](N2CCCC2)C1`, for which the cytotoxicity at 70.5 h is -7.06%.
As to `CC(=O)N1CCc2nnc(C3CCCN3CC3CCCCC3)n2CC1` (configuration not stated), the cytotoxicity at 70.5 h is -6.06%.
With `O=C(NCCNC1CCCCC1)c1cccs1`, the cytotoxicity at 70.5 h was -6.1%.
The figure for `Cc1cc(C(=O)NCc2ccc(F)cc2)nc(C2CCCN2C)n1` (configuration not stated) is -2.73%.
Turning to `CN(C)c1cc(C2CCCN2C(=O)c2ccc(=O)n(C)c2)ccn1` (configuration not stated), the cytotoxicity at 70.5 h was -7.99%.
The value for `COc1ccc(-c2cnc(N(C)C)nc2C2CN(C(C)=O)CCO2)cc1` (configuration not stated) was -11.5%; that for `Fc1ccc(-c2nccnc2C2CCCNC2)cc1` (configuration not stated) was -3.79%.
On to `Fc1cccc(-c2nccnc2C2CCCNC2)c1` (configuration not stated), for which the cytotoxicity at 70.5 h was -11.7%.
The figure for `Cc1nccc(C2CCCCN2Cc2cccc(F)c2)n1` (configuration not stated) is -12.9%; for `CS(=O)(=O)N1CC(c2n[nH]c3ncccc23)C1` it is -1.49%.
With `CS(=O)(=O)c1cn[nH]c1C1CCCN(C(=O)CN2CCOCC2)C1` (configuration not stated), the cytotoxicity at 70.5 h was -5.31%.
For `CN(C)c1nccc(C2CCCN(C(=O)CO)C2)n1` (configuration not stated), the cytotoxicity at 70.5 h is -7.31%.
The value for `COc1ccc(C(=O)N2C[C@@H](c3ccccc3)[C@@H]3NCCCC[C@@H]32)cc1` was -8.54%; that for `c1cc(N2CCOCC(Cc3ccc4[nH]ccc4c3)C2)ncn1` (configuration not stated) was -8.81%; that for `Cc1cc(N2CCOCC(Cc3ccc4[nH]ccc4c3)C2)ncn1` (configuration not stated) was -9.7%.
The figure for `Cc1sc2c(C3CCCN(C)C3)nc(C)n2c1C` (configuration not stated) is 24.3%.
Take `CC(=O)N1CC(c2ccnc(Nc3ccc(C)cn3)n2)C1`: the cytotoxicity at 70.5 h is -4.62%.
In the case of `Cc1cc(C2CCN(S(=O)(=O)c3cn(C)cn3)CC2)ccn1`, the cytotoxicity at 70.5 h was -9.79%.
With `COc1cccc(-c2cnc(C3CCNCC3)cn2)c1`, the cytotoxicity at 70.5 h was -4.54%.
The figure for `Cn1nccc1C(=O)N1CCOC(Cc2ccc(Cl)cc2)C1` (configuration not stated) is 0.563%; for `Cc1cncc(C2CCN(C(=O)CCc3ccnn3C)CC2)n1` it is 23.6%; for `Cc1[nH]c2ccc(C(=O)N3C[C@@H](O)[C@H](N4CCOCC4)C3)cc2c1C` it is -1.3%.
The figure for `CCN(Cc1ccncc1)CC1(O)CCN(C(=O)c2cccc(C)c2)C1` (configuration not stated) is -4.75%.
`Nc1nccnc1C1CN(C(=O)c2ccnnc2)CCO1` (configuration not stated): the cytotoxicity at 70.5 h is -6.55%.
As to `O=C(N[C@@H]1CCC[C@@H](N2CCCC2)[C@@H]1O)c1cnn2cccnc12`, the cytotoxicity at 70.5 h is -1.75%.
The value for `O=C(N[C@@H]1CC[C@@H](N2CCOCC2)[C@@H]1O)c1cnn2cccnc12` was 21.8%; that for `Cc1nc2ccccn2c1CC(=O)N[C@@H]1CC[C@@H](N2CCCC2)[C@@H]1O` was -5.16%; that for `Cc1cc(C(=O)N2CCc3nc(C4CCCCN4)ncc3C2)cs1` (configuration not stated) was -7.25%.
The value for `Fc1ccccc1OCCc1cc(C2CNCCO2)n[nH]1` (configuration not stated) was -5.54%; that for `Cc1ccc(CN(CCCN2CCOCC2)Cc2cncn2C)o1` was -4.09%.
The figure for `Cc1nc(C2CCN(Cc3ncc[nH]3)CC2)no1` is 19.7%.

The values are drawn from ChEMBL document CHEMBL3507680, “University of Dundee, Gates Library screen for HepG2 cell viability”.
